PubChem BioAssay (NCI)
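Grown in 96-well plates, cells were treated for 48 hours with each compound at five concentrations. Insufficient inhibition: endpoint recorded as highest concentration tested. At the GI50, growth is halved. TGI marks complete inhibition of growth.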

Columns and labels:
Assay in all cases: DTP human tumour cell line panel, 48 h
[1] = tested on: 786-0 renal
[2] = tested on: SK-MEL-5 melanoma
[3] = tested on: EKVX NSCLC
[4] = tested on: HCT-15 colon
[5] = tested on: SF-268 CNS
[6] = tested on: A549 NSCLC
[7] = tested on: TK-10 renal
[8] = tested on: SF-295 CNS
[9] = tested on: SK-MEL-2 melanoma
[10] = tested on: PC-3 prostate
[11] = tested on: DU-145 prostate
[12] = tested on: ACHN renal
[13] = tested on: CAKI-1 renal
[14] = tested on: MDA-MB-435
[15] = tested on: SN12C renal
[16] = tested on: K-562 leukemia
[17] = tested on: HOP-92 NSCLC
[18] = tested on: IGROV1 ovarian
[19] = tested on: OVCAR-5 ovarian
[20] = tested on: UACC-257 melanoma
[21] = tested on: NCI-H226 lung
[22] = tested on: NCI-H23 lung
[23] = tested on: HCC-2998 colon
[24] = tested on: UACC-62 melanoma
[25] = tested on: HL-60(TB) leukemia
[26] = tested on: KM12 colon
[27] = tested on: M14 melanoma
[28] = tested on: MOLT-4 leukemia
[29] = tested on: SR leukemia
[30] = tested on: SW-620 colon
[31] = tested on: RPMI-8226 leukemia
[32] = tested on: BT-549 breast
[33] = tested on: SF-539 CNS
[34] = tested on: CCRF-CEM leukemia
[35] = tested on: NCI-H460 lung
[36] = tested on: MCF7 breast
[37] = tested on: NCI-H522 lung
[38] = tested on: NCI/ADR-RES ovarian
[39] = tested on: OVCAR-8 ovarian
[40] = tested on: HS 578T breast
[41] = tested on: OVCAR-3 ovarian
[42] = tested on: MDA-MB-231 breast
[43] = tested on: UO-31 renal
[44] = tested on: T-47D breast
[45] = tested on: SNB-19 CNS
[46] = tested on: U251 CNS
[47] = tested on: HT29 colon
[48] = tested on: SK-MEL-28 melanoma
[49] = tested on: HCT-116 colon
[50] = tested on: HOP-62 NSCLC
[51] = tested on: LOX IMVI melanoma
[52] = tested on: OVCAR-4 ovarian
[53] = tested on: MALME-3M melanoma
[54] = tested on: SNB-75 CNS
[55] = tested on: A498 renal
[56] = tested on: SK-OV-3 ovarian
[57] = tested on: COLO 205 colon
[58] = tested on: RXF 393 renal

`CCOP(=O)(OCC)C(NC(c1ccccc1)c1ccccc1)c1cccc2ccccc12` (stereo not drawn) showed a GI50 [1] of 2.9 µM, a TGI [1] of 9.64 µM and a GI50 [2] of 14.9 µM. For the same molecule, the TGI [2] was 32.2 µM, the GI50 [3] was 16.2 µM and the TGI [3] was 35.5 µM. It also gave a GI50 [4] of 1.51 µM, a TGI [4] of 8.78 µM and a GI50 [5] of 5.75 µM. For the same molecule, the TGI [5] was 21.2 µM, the GI50 [6] was 4.28 µM and the TGI [6] was > 100 µM. The GI50 [7] was 10.3 µM, the TGI [7] was 29.4 µM and the GI50 [8] was 6.76 µM. For the same molecule, the TGI [8] was 65.7 µM, the GI50 [9] was 27.7 µM and the TGI [9] was > 100 µM. The GI50 [10] was 3.37 µM, the TGI [10] was 13.9 µM and the GI50 [11] was 20.4 µM. For the same molecule, the TGI [11] was 39 µM, the GI50 [12] was 4.1 µM and the TGI [12] was 12.3 µM. The GI50 [13] was 4.09 µM, the TGI [13] was 14.5 µM and the GI50 [14] was 9.18 µM. For the same molecule, the TGI [14] was 28.3 µM, the GI50 [15] was 2.68 µM and the TGI [15] was 8.65 µM. For the same molecule, the GI50 [16] was 3.99 µM, the TGI [16] was 21 µM and the GI50 [17] was 11.7 µM. The TGI [17] was 28.4 µM, the GI50 [18] was 23.6 µM and the TGI [18] was > 100 µM. It also gave a GI50 [19] of 14.3 µM, a TGI [19] of 34.4 µM and a GI50 [20] of 3.22 µM. It also gave a TGI [20] of 13.9 µM, a GI50 [21] of 4.63 µM and a TGI [21] of 19 µM. The GI50 [22] was 13.3 µM, the TGI [22] was 29.5 µM and the GI50 [23] was 4.55 µM. For the same molecule, the TGI [23] was 17.2 µM, the GI50 [24] was 2.58 µM and the TGI [24] was 9.1 µM. The GI50 [25] was 14.1 µM, the TGI [25] was > 100 µM and the GI50 [26] was 5.32 µM. It also gave a TGI [26] of 23 µM, a GI50 [27] of 3.03 µM and a TGI [27] of 7.71 µM. For the same molecule, the GI50 [28] was 4.17 µM, the TGI [28] was > 100 µM and the GI50 [29] was 4.91 µM. The TGI [29] was > 100 µM, the GI50 [30] was 22.2 µM and the TGI [30] was 57.6 µM. For the same molecule, the GI50 [31] was 2.38 µM, the TGI [31] was 5.57 µM and the GI50 [32] was 23.8 µM. It also gave a TGI [32] of 53.5 µM, a GI50 [33] of 23 µM and a TGI [33] of 41.4 µM. For the same molecule, the GI50 [34] was 5.86 µM, the TGI [34] was > 100 µM and the GI50 [35] was 5.05 µM. For the same molecule, the TGI [35] was 25.8 µM, the GI50 [36] was 4.04 µM and the TGI [36] was 24.3 µM. The GI50 [37] was 7.96 µM, the TGI [37] was > 100 µM and the GI50 [38] was 9.79 µM. For the same molecule, the TGI [38] was 22.6 µM, the GI50 [39] was 6.14 µM and the TGI [39] was > 100 µM. The GI50 [40] was 29.9 µM, the TGI [40] was 67.3 µM and the GI50 [41] was 4.22 µM. The TGI [41] was 12.5 µM, the GI50 [42] was 1.56 µM and the TGI [42] was 9.63 µM. For the same molecule, the GI50 [43] was 12.3 µM and the TGI [43] was > 100 µM.

With `CC(C)C[P+](c1ccccc1)(c1ccccc1)c1ccccc1` the TGI [1] was > 100 µM, the TGI [2] was 18.2 µM and the TGI [3] was 30 µM. The TGI [4] was > 100 µM, the TGI [5] was > 100 µM and the TGI [6] was > 100 µM. The TGI [7] was 66.5 µM, the TGI [8] was 90.5 µM and the TGI [44] was > 100 µM. The TGI [9] was 41.7 µM, the TGI [45] was > 100 µM and the TGI [11] was > 100 µM. The TGI [12] was > 100 µM, the TGI [13] was 37.8 µM and the TGI [46] was > 100 µM. For the same molecule, the TGI [47] was > 100 µM, the TGI [14] was 25 µM and the TGI [15] was > 100 µM. For the same molecule, the TGI [48] was > 100 µM, the TGI [16] was > 100 µM and the TGI [49] was > 100 µM. For the same molecule, the TGI [17] was 26.3 µM, the TGI [18] was > 100 µM and the TGI [19] was > 100 µM. The TGI [50] was > 100 µM, the TGI [51] was > 100 µM and the TGI [20] was 4.19 µM. For the same molecule, the TGI [21] was > 100 µM, the TGI [22] was > 100 µM and the TGI [23] was > 100 µM. The TGI [24] was > 100 µM, the TGI [25] was 24 µM and the TGI [26] was 20.7 µM. For the same molecule, the TGI [52] was > 100 µM, the TGI [53] was 83.6 µM and the TGI [27] was > 100 µM. For the same molecule, the TGI [28] was > 100 µM, the TGI [30] was > 100 µM and the TGI [31] was 0.033 µM. For the same molecule, the TGI [32] was > 100 µM, the TGI [54] was > 100 µM and the TGI [55] was > 100 µM. The TGI [33] was > 100 µM, the TGI [34] was 11.1 µM and the TGI [35] was > 100 µM. For the same molecule, the TGI [36] was > 100 µM, the TGI [37] was > 100 µM and the TGI [38] was > 100 µM. For the same molecule, the TGI [56] was 87.4 µM, the TGI [57] was 15.7 µM and the TGI [40] was > 100 µM. For the same molecule, the TGI [41] was 84.6 µM, the TGI [42] was > 100 µM and the TGI [43] was > 100 µM.

For `COc1cccc(-c2cc(=O)c3c(C)ccnc3[nH]2)c1`, the TGI [1] was > 100 µM, the TGI [2] was 3.71 µM and the TGI [3] was > 100 µM. For the same molecule, the TGI [5] was > 100 µM, the TGI [6] was > 100 µM and the TGI [7] was > 100 µM. For the same molecule, the TGI [8] was > 100 µM, the TGI [44] was > 100 µM and the TGI [9] was > 100 µM. For the same molecule, the TGI [10] was > 100 µM, the TGI [45] was > 100 µM and the TGI [12] was > 100 µM. The TGI [46] was > 100 µM, the TGI [47] was > 100 µM and the TGI [15] was > 100 µM. For the same molecule, the TGI [58] was > 100 µM, the TGI [16] was 0.397 µM and the TGI [49] was > 100 µM. The TGI [18] was > 100 µM, the TGI [19] was > 100 µM and the TGI [50] was > 100 µM. The TGI [51] was > 100 µM, the TGI [21] was 0.0742 µM and the TGI [22] was > 100 µM. For the same molecule, the TGI [23] was 0.27 µM, the TGI [24] was > 100 µM and the TGI [25] was 0.0532 µM. For the same molecule, the TGI [26] was 1.49 µM, the TGI [52] was > 100 µM and the TGI [53] was > 100 µM. The TGI [27] was > 100 µM, the TGI [28] was > 100 µM and the TGI [29] was 0.0396 µM. For the same molecule, the TGI [30] was > 100 µM, the TGI [31] was 11.8 µM and the TGI [32] was > 100 µM. The TGI [54] was 0.0417 µM, the TGI [55] was > 77.1 µM and the TGI [34] was 0.218 µM. For the same molecule, the TGI [35] was > 34.4 µM, the TGI [36] was > 100 µM and the TGI [37] was 0.226 µM. The TGI [39] was > 100 µM, the TGI [56] was > 100 µM and the TGI [57] was 0.0854 µM. For the same molecule, the TGI [40] was > 100 µM, the TGI [42] was > 100 µM and the TGI [43] was > 100 µM.
